Data: patent publication US20250115598A1 (Anaxis Pharma Pty Ltd, priority 2021, published 2025)
Read-outs that look alike come from different tables or passages of the source.

Tests used:
[1] = target: human RIPK3 (Homo sapiens (Human), UniProt Q9Y572); assay: KINOMEscan binding assay, human RIPK3; conditions: Table 21
Outline: (§1)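 Binding constants were derived by fitting qPCR-quantified bead-retained kinase against compound concentration to the Hill equation, slope set at −1. Compound series were 3-fold over 11 points with 1% DMSO; most top concentrations were 30,000 nM. Kinases were T7-phage-tagged or HEK-293-produced with DNA tags.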

[2] = target: human MLKL (full length) (Homo sapiens (Human), UniProt Q8NB16); assay: KINOMEscan binding assay, human MLKL (full length)
Outline: as §1

[3] = test system: U937 human histiocytic leukemia cell line; assay: Cellular assay: inhibition of TSQ induced necroptosis, CellTitre-Glo viability; conditions: U937 cells, 48 hours, TSQ cocktail, read-out: Inhibition of TSQ-induced necroptosis (IC50 cell-based assay)
Method: Cellular Assay: Screening Compounds for Inhibition of TSQ Induced Necroptosis, 384 Well Plate Format.
(§2) • Cell Line ID: U937 human histiocytic leukemia cell line. • Cell Concentration (cells/well): Final cell density is 20000 cells per well. • Cell growth medium: HT-RPMI medium+7.4% Fetal Bovine Serum (FBS). Cells are cultured in Corning 150 cm^2 tissue culture flasks with vented caps at 37° C./5% CO2. • Incubation: Plates were incubated at 37° C./5% CO2 in a humidified incubator for 48 hours following addition of compounds and death stimuli (TSQ cocktail). • Compound concentration: 36 μM starting concentration, 1:3 dilution, 10 point • DMSO final concentration (% v/v): 0.3%. Compounds in TSQ Cocktail (T: TNF; S: Smac Mimetic; Q: Q-VD-OPh) and their Final Concentrations: • hTNF-Fc (100 ng/ml)—produced by standard procedures as shown in Bossen et al., J. Biol. Chem., 2006, 281(20), 13964-13971. • Compound A (500 nM)—Smac mimetic, Tetralogic and SYNthesis med chem • Q-VD-OPh (10 μM)—MP Biomedicals
(§3) The cellular assay was carried out according to the following steps: • 1. Each well was prepared by sequential addition of: • a. DMSO (control; columns 1-2 and 23-24) or compound in DMSO—addition was performed using acoustic transfer of nL volumes of stock compound to give final test concentrations of 36, 12, 4, 1.3, 0.44, 0.148, 0.049, 0.016, 0.005 and 0.002 μM. All wells were backfilled with DMSO to a final total volume in the well of 100 nL. • b. Following compound/DMSO addition in step (a), 40 μL of cell suspension (5×10^5 cells/mL) was added to provide a final cell concentration of 20,000 cells per well, and • c. Following cell addition in step (b), 10 μL of 5×TSQ cocktail (except to positive controls; columns 1 and 23) was added to each well. • 2. After 48 hours, plate was removed from the 37° C. incubator and equilibrated to room temperature for 45 minutes. • 3.15 μL of room temperature CellTitre-Glo2™ (Promega™) was added to each well. • 4. Shook plates for 2 minutes (˜600 rpm) and incubated at room temperature for 15 minutes to allow signal to stabilise. • 5. Read luminescence readout on a plate reader.
Percent viability was calculated for each compound according to equation (2):
(§4) • Assay involving the TSQ cocktail (T: TNF; S: Smac mimetic; Q: Q-VD-OPh): TSQ treatment ensures that cells specifically undergo necroptotic cell death. TNF activates the TNF receptor, Smac mimetic directs the signal away from proinflammatory signaling and toward the RIPK1/RIPK3-mediated cell death pathways, and Q-VD-OPh ensures that the apoptotic response is blocked leaving only the programmed necrosis response. The compounds' activity (solution in DMSO) tested in this TSQ-induced assay was evaluated by determining the number of viable cells in culture by measuring the amount of ATP present as measured by CelltiterGlo. • Counter screen: In parallel, all compounds were tested for their ability to affect cell viability. The same U937 cells were treated with compound in DMSO without the TSQ cocktail. This counter screen enabled evaluation of off-target effects. In this case, cell viability was measured by CelltiterGlo.

[4] = target: human RIPK1 (Homo sapiens (Human), UniProt Q13546); assay: KINOMEscan binding assay, human RIPK1; conditions: Table 21
Outline: as §1

[5] = test system: U937 cells; assay: Counter screen: cell viability without the TSQ cocktail (off-target effect); design: species or system human
Method: as §2, §3, §4

[6] = target: endogenous MLKL in MDF (Mus musculus (Mouse), UniProt Q9D2Y4); assay: Degradation assay: endogenous MLKL in MDF (western blot); conditions: MDF cells, 24 h incubation with compound, MLKL adjusted for loading with GAPDH, normalized to DMSO only control, read-out: Degradation of endogenous MLKL in MDF (DC50 cell-based assay)
Outline: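 Western blot band intensity of MLKL, adjusted to GAPDH loading and normalized to DMSO-only wells, gave percent degradation. Compound exposure lasted 24 h at final concentrations of 10–0.016 μM in 1:5 steps, in mouse dermal fibroblasts or human U937 cells.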

[7] = test system: Immortalised Mouse Dermal Fibroblasts (MDFs); assay: Cellular assay: inhibition of TSI induced necroptosis, CellTitre-Glo viability; conditions: Mus musculus, Fibroblast, MDF, 3 hours TSI cocktail, read-out: Inhibition of TSI-induced necroptosis (IC50 cell-based assay) in MDF
Outline: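 Necroptosis induced for 3 h with TSI: rhTNF 100 ng/ml, Smac mimetic 500 nM, caspase inhibitor IDN-6556 10 μM. Mouse dermal fibroblasts had received compound (36 μM top, ten three-fold steps) 30 min beforehand. ATP-based viability scaled between untreated and TSI-only wells; IC50 taken as 4-parameter curve inflection.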

[8] = KINOMEscan, Table 21, read-out: Human MLKL (full-length) (KD)
[9] = Homo sapiens, U-937, Table 23, read-out: Off-target effect (IC50 cell-based assay)
[10] = Homo sapiens, U-937, Table 26, read-out: Off-target effect (IC50 cell-based assay)
[11] = Table 23, read-out: Off-target effect (IC50 cell-based assay)
[12] = hMLKL, Table 25, read-out: MLKL (KD)

Chain of human MLKL (full length) (Q8NB16 whole entry): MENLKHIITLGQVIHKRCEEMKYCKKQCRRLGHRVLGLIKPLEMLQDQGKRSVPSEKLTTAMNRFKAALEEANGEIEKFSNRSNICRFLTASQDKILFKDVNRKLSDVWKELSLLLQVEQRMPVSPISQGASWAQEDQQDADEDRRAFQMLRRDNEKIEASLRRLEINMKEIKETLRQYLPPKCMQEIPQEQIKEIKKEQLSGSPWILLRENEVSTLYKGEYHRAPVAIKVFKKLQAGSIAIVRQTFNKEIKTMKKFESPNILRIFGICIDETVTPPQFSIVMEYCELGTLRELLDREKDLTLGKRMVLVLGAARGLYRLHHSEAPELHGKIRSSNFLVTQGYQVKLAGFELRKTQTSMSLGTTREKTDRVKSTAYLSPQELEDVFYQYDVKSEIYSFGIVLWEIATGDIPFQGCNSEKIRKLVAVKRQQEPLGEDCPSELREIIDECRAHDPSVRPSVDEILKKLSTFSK
Chain of human RIPK1 (Q13546 whole entry): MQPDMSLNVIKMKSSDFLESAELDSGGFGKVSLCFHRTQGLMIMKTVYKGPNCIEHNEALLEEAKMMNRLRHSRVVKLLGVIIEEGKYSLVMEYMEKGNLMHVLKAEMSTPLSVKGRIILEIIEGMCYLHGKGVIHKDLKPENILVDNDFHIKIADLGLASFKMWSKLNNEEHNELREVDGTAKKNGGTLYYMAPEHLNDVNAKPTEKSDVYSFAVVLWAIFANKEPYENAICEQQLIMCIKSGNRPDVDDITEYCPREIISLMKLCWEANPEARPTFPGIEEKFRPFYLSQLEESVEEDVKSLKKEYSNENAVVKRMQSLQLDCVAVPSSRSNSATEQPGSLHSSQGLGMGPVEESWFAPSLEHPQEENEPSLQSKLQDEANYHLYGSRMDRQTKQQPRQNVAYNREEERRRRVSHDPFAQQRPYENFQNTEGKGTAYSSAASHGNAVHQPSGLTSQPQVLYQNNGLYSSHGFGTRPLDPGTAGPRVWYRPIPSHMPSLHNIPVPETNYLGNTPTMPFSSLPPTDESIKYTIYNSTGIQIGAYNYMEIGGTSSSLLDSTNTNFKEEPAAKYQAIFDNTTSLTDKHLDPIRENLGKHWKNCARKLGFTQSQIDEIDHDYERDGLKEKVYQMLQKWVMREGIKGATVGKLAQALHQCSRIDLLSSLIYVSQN
Chain of human RIPK3 (Q9Y572 whole entry): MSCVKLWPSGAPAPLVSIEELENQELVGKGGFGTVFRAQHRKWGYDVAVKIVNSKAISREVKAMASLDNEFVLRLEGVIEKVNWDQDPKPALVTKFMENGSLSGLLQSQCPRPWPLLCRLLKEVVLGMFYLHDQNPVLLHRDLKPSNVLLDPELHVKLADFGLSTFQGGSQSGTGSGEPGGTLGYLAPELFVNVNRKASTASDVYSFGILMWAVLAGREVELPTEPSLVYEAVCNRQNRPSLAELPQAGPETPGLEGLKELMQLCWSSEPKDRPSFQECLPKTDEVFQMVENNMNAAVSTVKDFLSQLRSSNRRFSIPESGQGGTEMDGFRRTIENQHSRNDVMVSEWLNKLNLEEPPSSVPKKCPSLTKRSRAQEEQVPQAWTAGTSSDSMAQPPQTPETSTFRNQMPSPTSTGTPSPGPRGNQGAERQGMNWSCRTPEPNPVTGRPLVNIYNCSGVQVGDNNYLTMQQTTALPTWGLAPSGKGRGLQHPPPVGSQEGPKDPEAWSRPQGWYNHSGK
Chain of endogenous MLKL in MDF (Q9D2Y4 whole entry): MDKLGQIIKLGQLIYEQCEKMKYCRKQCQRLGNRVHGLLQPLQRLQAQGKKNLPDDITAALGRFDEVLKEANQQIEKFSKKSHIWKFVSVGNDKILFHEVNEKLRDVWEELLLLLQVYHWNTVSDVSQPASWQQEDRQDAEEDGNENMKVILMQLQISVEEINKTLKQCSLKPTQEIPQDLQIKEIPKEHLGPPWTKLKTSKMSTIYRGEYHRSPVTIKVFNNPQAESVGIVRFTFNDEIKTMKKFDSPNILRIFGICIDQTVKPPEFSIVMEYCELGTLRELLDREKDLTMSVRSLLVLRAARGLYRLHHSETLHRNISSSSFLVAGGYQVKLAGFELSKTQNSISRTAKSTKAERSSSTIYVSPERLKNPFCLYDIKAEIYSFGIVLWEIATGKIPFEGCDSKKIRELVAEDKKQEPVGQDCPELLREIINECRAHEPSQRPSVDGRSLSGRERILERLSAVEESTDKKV

Compound | Kd [1] | Kd [2, 8] | IC50 ([3]; Homo sapiens, U-937, Table 23) | Kd [4] | IC50 [5, 9] | IC50 ([3]; Homo sapiens, U-937, Table 26) | IC50 [5, 10] | Kd [2, 12] | other results
CCS(=O)(=O)Nc1ccc(-c2nn(C)c3c(-c4ccncc4)cnc(N)c23)cc1OCc1ccc(F)cc1 [Compound 1, N-(4-(4-amino-1-methyl-7-(pyridin-4-yl)-1H-pyrazolo[4,3-c]pyridin-3-yl)-2-((4-fluorobenzyl)oxy)phe-nyl)ethanesulfonamide] | > 10000 nM | 1 to 100 nM | 1000 to 10000 nM | > 10000 nM | > 10000 nM | – | – | – | –
Cc1ncsc1-c1ccc(CNC(=O)[C@@H]2C[C@@H](O)CN2C(=O)[C@@H](NC(=O)CN2CCC(C#Cc3cnc(N)c4c(-c5ccc(NS(=O)(=O)C(F)F)c(O[C@@H](C)c6ccc(F)cc6)c5)nn(C)c34)CC2)C(C)(C)C)cc1 [Compound 1023, (2S,4R)-1-[(2S)-2-{2-[4-(2-{4-amino-3-[4-(difluoromethanesulfonamido)-3-[(1S)-1-(4-fluorophenyl)ethoxy]phenyl]-1-methyl-1H-pyrazolo[4,3-c]pyridin-7-yl}ethynyl)piperidin-1-yl]acetamido}-3,3-dimethylbutanoyl]-4-hydroxy-N-{[4-(4-methyl-1,3-thiazol-5-yl)phenyl]methyl} pyrrolidine-2-carboxamide] | – | – | – | – | – | < 1000 nM | > 10000 nM | – | DC50 [6]: 1000 to 10000 nM
C[C@H](Oc1cc(-c2nn(C)c3c(-c4cnn(C5CCN(C)C(C)(C)C5)c4)cnc(N)c23)ccc1NS(=O)(=O)C(F)F)c1ccc(F)cc1 (single isomer, unassigned) [Compound 155, N-(4-(4-amino-1-methyl-7-(1-((S*)-1,2,2-trimethylpiperidin-4-yl)-1H-pyrazol-4-yl)-1H-pyrazolo[4,3-c]pyridin-3-yl)-2-((S)-1-(4-fluorophenyl)ethoxy)phenyl)-1,1-difluoromethanesulfonamide] | – | – | < 10 nM | – | > 10000 nM | – | – | – | IC50 ([7]; Table 24): < 1000 nM
Cc1ncsc1-c1ccc(CNC(=O)[C@@H]2C[C@@H](O)CN2C(=O)[C@@H](NC(=O)CN2CCC(n3cc(-c4cnc(N)c5c(-c6ccc(NS(=O)(=O)C(F)F)c(O[C@@H](C)c7ccc(F)cc7)c6)nn(C)c45)cn3)CC2)C(C)(C)C)cc1 [Compound 1016, (2S,4R)-1-[(2S)-2-{2-[4-(4-{4-amino-3-[4-(difluoromethanesulfonamido)-3-[(1S)-1-(4-fluorophenyl)ethoxy]phenyl]-1-methyl-1H-pyrazolo[4,3-c]pyridin-7-yl}-1H-pyrazol-1-yl)piperidin-1-yl]acetamido}-3,3-dimethylbutanoyl]-4-hydroxy-N-{[4-(4-methyl-1,3-thiazol-5-yl)phenyl]methyl}pyrrolidine-2-carboxamide] | – | – | – | – | – | < 1000 nM | > 10000 nM | – | IC50 ([7]; Table 27): < 1000 nM
CNc1ncc(-n2cc(-c3cnc(N)c4c(-c5ccc(NS(=O)(=O)C(F)F)c(O[C@@H](C)c6ccc(F)cc6)c5)nn(C)c34)cn2)cn1 [Compound 138, (S)-N-(4-(4-amino-1-methyl-7-(1-(2-(methylamino)pyrimidin-5-yl)-1H-pyrazol-4-yl)-1H-pyrazolo[4,3-c]pyridin-3-yl)-2-(1-(4-fluorophenyl)ethoxy)phenyl)-1,1-difluoromethanesulfonamide] | > 10000 nM | 1 to 100 nM | – | > 10000 nM | – | – | – | – | IC50 ([3]; Table 23): 10 to 1000 nM; IC50 [5, 11]: > 10000 nM
C[C@H](Oc1cc(-c2nn(C)c3c(-c4cnn([C@@H]5CCN(C)C(C)(C)C5)c4)cnc(N)c23)ccc1NS(=O)(=O)C(F)F)c1ccc(F)cc1 (single isomer, unassigned) [Compound 154, N-(4-(4-amino-1-methyl-7-(1-((R*)-1,2,2-trimethylpiperidin-4-yl)-1H-pyrazol-4-yl)-1H-pyrazolo[4,3-c]pyridin-3-yl)-2-((S)-1-(4-fluorophenyl)ethoxy)phenyl)-1,1-difluoromethanesulfonamide] | > 10000 nM | – | < 10 nM | > 10000 nM | > 10000 nM | – | – | – | –
CCS(=O)(=O)Nc1ccc(-c2n[nH]c3c(-c4cnn(CCCCC(=O)N[C@H](C(=O)N5C[C@H](O)C[C@H]5C(=O)NCc5ccc(-c6scnc6C)cc5)C(C)(C)C)c4)cnc(N)c23)cc1OCc1ccc(F)cc1 [Compound 1002, (2S,4R)-1-[(2S)-2-{5-[4-(4-amino-3-{4-ethanesulfonamido-3-[(4-fluorophenyl)methoxy]phenyl}-1H-pyrazolo[4,3-c]pyridin-7-yl)-1H-pyrazol-1-yl]pentanamido}-3,3-dimethylbutanoyl]-4-hydroxy-N-{[4-(4-methyl-1,3-thiazol-5-yl)phenyl]methyl}pyrrolidine-2-carboxamide] | – | – | – | – | – | > 10000 nM | > 10000 nM | < 10 nM | –
Cc1ncsc1-c1ccc(CNC(=O)[C@@H]2C[C@@H](O)CN2C(=O)[C@@H](NC(=O)COCCOCCn2cc(-c3cnc(N)c4c(-c5ccc(NS(=O)(=O)C(F)F)cc5)nn(C)c34)cn2)C(C)(C)C)cc1 [Compound 1021] | – | – | – | – | – | 1000 to 10000 nM | > 10000 nM | < 10 nM | –
Cc1ncsc1-c1ccc(CNC(=O)[C@@H]2C[C@@H](O)CN2C(=O)[C@H](NC(=O)C2(F)CC2)C(C)(C)C)c(OCCCCCCCn2cc(-c3cnc(N)c4c(-c5ccc(NS(=O)(=O)C(F)F)c(O[C@@H](C)c6ccc(F)cc6)c5)nn(C)c34)cn2)c1 [Compound 1030, (2S,4R)—N-[(2-{[7-(4-{4-amino-3-[4-(difluoromethanesulfonamido)-3-[(1S)-1-(4-fluorophenyl)ethoxy]phenyl]-1-methyl-1H-pyrazolo[4,3-c]pyridin-7-yl}-1H-pyrazol-1-yl)heptyl]oxy}-4-(4-methyl-1,3-thiazol-5-yl)phenyl)methyl]-1-[(2R)-2-[(1-fluorocyclopropyl)formamido]-3,3-dimethylbutanoyl]-4-hydroxypyrrolidine-2-carboxamide] | – | – | – | – | – | < 1000 nM | > 10000 nM | 10 to 1000 nM | –
C[C@H](Oc1cc(-c2nn(C)c3c(-c4ccc(N5CCNCC5)nc4)cnc(N)c23)ccc1NS(=O)(=O)C(F)F)c1ccc(F)cc1 [Compound 108] | > 10000 nM | < 1 nM | – | > 10000 nM | – | – | – | – | IC50 ([3]; Table 23): 10 to 1000 nM; IC50 [5, 11]: > 10000 nM
